According to US10301261B2, “Substituted indoles as modulators of ROR-gamma” (Vitae Pharmaceuticals, LLC, priority 2015, dated 2019):

Columns and labels:
[1] = biological target: full-length RORγt in Jurkat cells (Homo sapiens (Human), UniProt P51449); assay: RORγt 5×RORE Assay in Jurkat Cells (Assay 2); assay type: cell-based; conditions: RORγt 5×RORE Nanoluc reporter
[2] = biological target: recombinant RORγ Ligand Binding Domain (LBD) protein (Homo sapiens (Human), UniProt P51449); assay: Radio-Ligand RORγ Binding Assay (Assay 1); conditions: radio-ligand 25-hydroxy [26,27-3H]-cholesterol competition
In short: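 Cell-free competition with 25-hydroxy[26,27-³H]-cholesterol for the ligand site of 6×His-GST-tagged RORγ LBD; SPA read-out with poly-Lys YSi beads after shaking and incubation at rt. IC50 taken as the inflection point of a four-parameter fit of percent inhibition vs concentration.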

full-length RORγt in Jurkat cells, sequence (P51449 other isoform, or with tags, fused parts or gaps): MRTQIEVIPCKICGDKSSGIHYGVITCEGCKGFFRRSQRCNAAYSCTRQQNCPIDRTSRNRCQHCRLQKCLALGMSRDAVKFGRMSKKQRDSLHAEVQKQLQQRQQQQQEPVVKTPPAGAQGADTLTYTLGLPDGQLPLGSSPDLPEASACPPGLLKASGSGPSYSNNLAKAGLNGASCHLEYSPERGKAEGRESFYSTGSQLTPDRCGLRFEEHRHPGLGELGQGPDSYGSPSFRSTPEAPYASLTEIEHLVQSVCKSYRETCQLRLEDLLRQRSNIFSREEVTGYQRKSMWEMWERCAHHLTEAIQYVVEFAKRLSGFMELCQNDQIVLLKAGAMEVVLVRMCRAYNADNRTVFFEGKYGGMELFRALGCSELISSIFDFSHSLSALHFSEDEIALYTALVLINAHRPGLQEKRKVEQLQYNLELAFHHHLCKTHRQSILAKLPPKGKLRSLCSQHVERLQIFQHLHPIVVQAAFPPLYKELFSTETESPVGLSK
recombinant RORγ Ligand Binding Domain (LBD) protein, sequence (P51449 269-508): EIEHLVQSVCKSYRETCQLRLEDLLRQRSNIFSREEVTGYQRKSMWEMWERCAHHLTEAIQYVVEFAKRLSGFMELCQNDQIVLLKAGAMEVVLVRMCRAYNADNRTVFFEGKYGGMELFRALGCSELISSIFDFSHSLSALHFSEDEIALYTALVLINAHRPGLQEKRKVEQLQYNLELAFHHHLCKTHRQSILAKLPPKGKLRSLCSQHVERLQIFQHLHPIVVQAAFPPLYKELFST

Row | Compound | IC50 [1] [nM] | Ki [2] [nM]
1 | CCS(=O)(=O)c1ccc(CNC(=O)c2ccc3c(c2)nc(CC2CCN(C(=O)OC(C)(C)C)CC2)n3C2CC2)cc1 [BE-49, tert-butyl 4-((1-cyclopropyl-5-((4-(ethylsulfonyl)benzyl)carbamoyl)-1H-benzo[d]imidazol-2-yl)methyl)piperidine-1-carboxylate] | 100 to 1000 | < 100
2 | CCS(=O)(=O)c1ccc(CNC(=O)c2ccc3c(c2)nc(O[C@H]2CC[C@H](C(F)(F)F)CC2)n3CC(C)C)cc1 [BE-4.1, N-(4-(ethylsulfonyl)benzyl)-1-isobutyl-2-(((1r,4r)-4-(trifluoromethyl)cyclohexyl)oxy)-1H-benzo[d]imidazole-5-carboxamide] | 100 to 1000 | < 100
3 | CCS(=O)(=O)c1ccc(CNC(=O)c2ccc3c(c2)nc(C[C@H]2CC[C@@H](C(F)(F)F)CC2)n3CC(C)C)cc1 [BE-19.2, N-(4-(ethylsulfonyl)benzyl)-1-isobutyl-2-(((1s,4s)-4-(trifluoromethyl)cyclohexyl)methyl)-1H-benzo[d]imidazole-5-carboxamide] | > 1000 | < 100
4 | CCS(=O)(=O)c1ccc(CNC(=O)c2cnc3c(c2)nc(Cc2ccc(C(F)(F)F)cc2)n3C2CC2)cc1 [AB-3, 3-cyclopropyl-N-(4-(ethylsulfonyl)benzyl)-2-(4-(trifluoromethyl)benzyl)-3H-imidazo[4,5-b]pyridine-6-carboxamide] | < 100 | < 100
5 | CCn1c(Cc2ccc(C(F)(F)F)cc2)nc2cc(C(=O)NCc3ccc(S(=O)(=O)CC)cc3)ccc21 [BE-35, 1-ethyl-N-(4-(ethylsulfonyl)benzyl)-2-(4-(trifluoromethyl)benzyl)-1H-benzo[d]imidazole-5-carboxamide] | < 100 | < 100
6 | CCn1c(C[C@H]2CC[C@H](C(F)(F)F)CC2)cc2cc(C(=O)NCc3ccc(S(=O)(=O)CC)cn3)ccc21 [IN-15.1, 1-ethyl-N-((5-(ethylsulfonyl)pyridin-2-yl)methyl)-2-(((1r,4r)-4-(trifluoromethyl)cyclohexyl)methyl)-1H-indole-5-carboxamide] | < 100 | < 100
7 | CCS(=O)(=O)c1ccc(CNC(=O)c2ccc3c(c2)cc(Cc2ccc(C(F)(F)F)cc2)n3C2CC2)cc1 [IN-18, 1-cyclopropyl-N-(4-(ethylsulfonyl)benzyl)-2-(4-(trifluoromethyl)benzyl)-1H-indole-5-carboxamide] | < 100 | < 100
